Among the data in patent EP0155825A2, “Novel choline derivatives” (NITTO BOSEKI CO., LTD., priority 1984, dated 1985) are non-enzymatic hydrolysis values, retold here.

The data set is described as follows: Stability against non-enzymatic hydrolysis in buffer. The data set is classed as physicochemical. Particulars: 1/15 molar phosphate buffer (pH 8.20) at 37°C for 90 minutes.

On to `C[N+](C)(C)CCOC(=O)c1ccc(O)c(O)c1.[I-]` [DHBCI, 3,4-dihydroxybenzoylcholine iodide], for which the non-enzymatic hydrolysis entry is given as “substantially no hydrolysis”.
